Settings: Liquid, Buoyancy - hydrostatic balance with magnetic suspension - one sinker

CCO [ethanol]
Settings	mass density [kg/m3]
233.15 K, 103.29 kPa	840.318
233.15 K, 1104.7 kPa	840.959
233.15 K, 2004.6 kPa	841.531
233.15 K, 4076.8 kPa	842.835
233.15 K, 6134.1 kPa	844.107
233.15 K, 8092.6 kPa	845.306
233.15 K, 10007 kPa	846.455
233.15 K, 12137 kPa	847.721
233.15 K, 14139 kPa	848.897
233.15 K, 16099 kPa	850.035
233.15 K, 18082 kPa	851.168
233.15 K, 20011 kPa	852.258
233.15 K, 22096 kPa	853.419
233.15 K, 24040 kPa	854.493
233.15 K, 25991 kPa	855.559
233.15 K, 27978 kPa	856.635
233.15 K, 29956 kPa	857.691
253.15 K, 102.67 kPa	823.303
253.15 K, 1104.1 kPa	824.013
253.15 K, 2003.9 kPa	824.651
253.15 K, 4116.4 kPa	826.119
253.15 K, 6065.7 kPa	827.455
253.15 K, 8137.6 kPa	828.849
253.15 K, 10136 kPa	830.174
253.15 K, 12072 kPa	831.443
253.15 K, 14126 kPa	832.763
253.15 K, 16133 kPa	834.037
253.15 K, 17950 kPa	835.17
253.15 K, 19863 kPa	836.357
253.15 K, 22055 kPa	837.687
253.15 K, 23993 kPa	838.859
253.15 K, 25929 kPa	840.004
253.15 K, 27985 kPa	841.212
253.15 K, 30009 kPa	842.379
273.15 K, 102.91 kPa	806.406
273.15 K, 1099 kPa	807.191
273.15 K, 2003.9 kPa	807.905
273.15 K, 4161.8 kPa	809.57
273.15 K, 6026.6 kPa	810.981
273.15 K, 8023.2 kPa	812.466
273.15 K, 10006 kPa	813.916
273.15 K, 12107 kPa	815.421
273.15 K, 13929 kPa	816.718
273.15 K, 15980 kPa	818.142
273.15 K, 17875 kPa	819.435
273.15 K, 20011 kPa	820.885
273.15 K, 21848 kPa	822.104
273.15 K, 24050 kPa	823.548
273.15 K, 25880 kPa	824.728
273.15 K, 27865 kPa	826.002
273.15 K, 29956 kPa	827.312
293.15 K, 103.01 kPa	789.433
293.15 K, 1103.9 kPa	790.313
293.15 K, 2004 kPa	791.096
293.15 K, 4147.8 kPa	792.937
293.15 K, 6147.5 kPa	794.616
293.15 K, 8110.8 kPa	796.232
293.15 K, 10008 kPa	797.758
293.15 K, 11860 kPa	799.229
293.15 K, 13880 kPa	800.802
293.15 K, 15954 kPa	802.391
293.15 K, 17852 kPa	803.817
293.15 K, 19967 kPa	805.383
293.15 K, 21842 kPa	806.743
293.15 K, 23888 kPa	808.2
293.15 K, 25963 kPa	809.658
293.15 K, 27862 kPa	810.975
293.15 K, 30031 kPa	812.452
313.15 K, 102.5 kPa	772.101
313.15 K, 1103.5 kPa	773.094
313.15 K, 2103.5 kPa	774.069
313.15 K, 4116 kPa	775.994
313.15 K, 6079.7 kPa	777.835
313.15 K, 8130.4 kPa	779.714
313.15 K, 10007 kPa	781.394
313.15 K, 12116 kPa	783.241
313.15 K, 14081 kPa	784.928
313.15 K, 16092 kPa	786.617
313.15 K, 18056 kPa	788.235
313.15 K, 19919 kPa	789.747
313.15 K, 22046 kPa	791.432
313.15 K, 24130 kPa	793.056
313.15 K, 26107 kPa	794.571
313.15 K, 27987 kPa	795.987
313.15 K, 29995 kPa	797.476
333.15 K, 1102.5 kPa	755.18
333.15 K, 2002.7 kPa	756.173
333.15 K, 4085.9 kPa	758.43
333.15 K, 6133 kPa	760.589
333.15 K, 8031.9 kPa	762.538
333.15 K, 9967.1 kPa	764.48
333.15 K, 12099 kPa	766.557
333.15 K, 13992 kPa	768.358
333.15 K, 16124 kPa	770.342
333.15 K, 18019 kPa	772.071
333.15 K, 20012 kPa	773.85
333.15 K, 22050 kPa	775.625
333.15 K, 24136 kPa	777.409
333.15 K, 26130 kPa	779.08
333.15 K, 28069 kPa	780.679
333.15 K, 30018 kPa	782.258
353.15 K, 1101.8 kPa	736.102
353.15 K, 2002.9 kPa	737.255
353.15 K, 4009.6 kPa	739.749
353.15 K, 5946.1 kPa	742.072
353.15 K, 8005.6 kPa	744.473
353.15 K, 10092 kPa	746.834
353.15 K, 12108 kPa	749.042
353.15 K, 14010 kPa	751.074
353.15 K, 16061 kPa	753.214
353.15 K, 18136 kPa	755.321
353.15 K, 20137 kPa	757.302
353.15 K, 22100 kPa	759.195
353.15 K, 24062 kPa	761.047
353.15 K, 26069 kPa	762.906
353.15 K, 28075 kPa	764.73
353.15 K, 30016 kPa	766.442
373.15 K, 1102.9 kPa	715.263
373.15 K, 2003.4 kPa	716.613
373.15 K, 4088.3 kPa	719.636
373.15 K, 6108.7 kPa	722.45
373.15 K, 8076 kPa	725.091
373.15 K, 10096 kPa	727.71
373.15 K, 12124 kPa	730.256
373.15 K, 14044 kPa	732.583
373.15 K, 16078 kPa	734.983
373.15 K, 18122 kPa	737.319
373.15 K, 20098 kPa	739.516
373.15 K, 22116 kPa	741.702
373.15 K, 24049 kPa	743.742
373.15 K, 26068 kPa	745.822
373.15 K, 28108 kPa	747.871
373.15 K, 29942 kPa	749.678
393.15 K, 1102.9 kPa	691.923
393.15 K, 2003.6 kPa	693.559
393.15 K, 3981 kPa	697.012
393.15 K, 6085.6 kPa	700.514
393.15 K, 8006.1 kPa	703.56
393.15 K, 10040 kPa	706.659
393.15 K, 12072 kPa	709.623
393.15 K, 14119 kPa	712.504
393.15 K, 16086 kPa	715.168
393.15 K, 18081 kPa	717.782
393.15 K, 19900 kPa	720.097
393.15 K, 22039 kPa	722.726
393.15 K, 24041 kPa	725.121
393.15 K, 26092 kPa	727.505
393.15 K, 28070 kPa	729.738
393.15 K, 29851 kPa	731.71
413.15 K, 1102.6 kPa	665.097
413.15 K, 2002.8 kPa	667.194
413.15 K, 4113.3 kPa	671.781
413.15 K, 6094.1 kPa	675.838
413.15 K, 8091.5 kPa	679.694
413.15 K, 10044 kPa	683.283
413.15 K, 11973 kPa	686.66
413.15 K, 14085 kPa	690.174
413.15 K, 16053 kPa	693.316
413.15 K, 18080 kPa	696.427
413.15 K, 20003 kPa	699.262
413.15 K, 22069 kPa	702.204
413.15 K, 24049 kPa	704.916
413.15 K, 26035 kPa	707.559
413.15 K, 27916 kPa	709.988
413.15 K, 30021 kPa	712.618
433.15 K, 2003.3 kPa	636.052
433.15 K, 4004.9 kPa	641.895
433.15 K, 6117.7 kPa	647.513
433.15 K, 7970.2 kPa	652.088
433.15 K, 10076 kPa	656.927
433.15 K, 12092 kPa	661.27
433.15 K, 14024 kPa	665.195
433.15 K, 16095 kPa	669.184
433.15 K, 17956 kPa	672.597
433.15 K, 20025 kPa	676.22
433.15 K, 22076 kPa	679.658
433.15 K, 23970 kPa	682.703
433.15 K, 26097 kPa	685.993
433.15 K, 27971 kPa	688.786
433.15 K, 29931 kPa	691.61
453.15 K, 2000.7 kPa	597.505
453.15 K, 4003.1 kPa	606.126
453.15 K, 5998.3 kPa	613.615
453.15 K, 7995.3 kPa	620.308
453.15 K, 10007 kPa	626.429
453.15 K, 12086 kPa	632.177
453.15 K, 14048 kPa	637.222
453.15 K, 15954 kPa	641.798
453.15 K, 17939 kPa	646.288
453.15 K, 20012 kPa	650.704
453.15 K, 22018 kPa	654.751
453.15 K, 24140 kPa	658.813
453.15 K, 25982 kPa	662.178
453.15 K, 28127 kPa	665.939
453.15 K, 30017 kPa	669.115
473.15 K, 4002.6 kPa	562.328
473.15 K, 6007.1 kPa	573.872
473.15 K, 8001.4 kPa	583.438
473.15 K, 10006 kPa	591.752
473.15 K, 12009 kPa	599.085
473.15 K, 14093 kPa	605.96
473.15 K, 15977 kPa	611.66
473.15 K, 18013 kPa	617.325
473.15 K, 20010 kPa	622.485
473.15 K, 21973 kPa	627.259
473.15 K, 24020 kPa	631.94
473.15 K, 25868 kPa	635.925
473.15 K, 28002 kPa	640.289
473.15 K, 30014 kPa	644.229
